Experimental data: US20130324522A1, “INSECT ODORANT RECEPTOR ANTAGONISTS” (THE ROCKEFELLER UNIVERSITY, priority 2010, published 2013)
Where two headings read alike, the source gives them in different places.

How the values were obtained:
Assay type in all cases: cell-based
OR1/OR7 = target: T1, OR1/OR7 (Anopheles gambiae, UniProt Q7QCC7+Q8WTE7); test: Ca2+-imaging of stable HEK293T cell line OR1/OR7
T1 construct: Full-length cDNAs for mosquito (Anopheles gambiae) odorant receptor (OR1, OR2, OR7, OR8, OR28); expressed in transfected cells
T1 sequence (Q8WTE7 1-417): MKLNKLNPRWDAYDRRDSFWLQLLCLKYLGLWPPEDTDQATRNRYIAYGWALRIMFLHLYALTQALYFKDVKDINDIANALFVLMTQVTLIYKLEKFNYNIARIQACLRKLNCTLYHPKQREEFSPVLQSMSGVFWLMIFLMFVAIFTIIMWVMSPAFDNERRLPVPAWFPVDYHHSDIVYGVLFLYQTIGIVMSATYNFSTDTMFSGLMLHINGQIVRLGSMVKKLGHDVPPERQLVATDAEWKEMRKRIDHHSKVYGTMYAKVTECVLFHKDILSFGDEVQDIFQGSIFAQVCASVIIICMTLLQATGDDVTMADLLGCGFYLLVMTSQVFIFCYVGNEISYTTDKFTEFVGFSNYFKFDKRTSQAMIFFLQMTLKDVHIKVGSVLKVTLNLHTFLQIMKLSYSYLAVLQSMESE
T1 sequence (Q7QCC7 1-478): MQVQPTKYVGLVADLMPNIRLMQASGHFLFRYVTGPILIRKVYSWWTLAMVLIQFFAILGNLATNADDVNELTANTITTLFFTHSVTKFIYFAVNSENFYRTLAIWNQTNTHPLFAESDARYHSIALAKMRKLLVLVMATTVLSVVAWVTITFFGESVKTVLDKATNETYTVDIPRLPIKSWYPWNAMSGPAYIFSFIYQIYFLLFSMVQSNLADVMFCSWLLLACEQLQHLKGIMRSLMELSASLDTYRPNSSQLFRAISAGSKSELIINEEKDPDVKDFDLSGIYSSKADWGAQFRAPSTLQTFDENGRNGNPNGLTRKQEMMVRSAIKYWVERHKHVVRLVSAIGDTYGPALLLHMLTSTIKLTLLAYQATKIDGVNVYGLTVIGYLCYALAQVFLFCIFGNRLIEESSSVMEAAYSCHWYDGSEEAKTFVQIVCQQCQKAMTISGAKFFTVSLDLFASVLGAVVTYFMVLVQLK
Protocol: (§1) Full-length cDNAs for mosquito (Anopheles gambiae) odorant receptor (OR1, OR2, OR7, OR8, OR28), and fly (Drosophila melanogaster) odorant receptor (Or47a, Or83b), mouse TRP channel (TRPM8), and mouse serotonin receptor (5HT3) were obtained and subcloned into mammalian expression vectors. The following mammalian expression vectors were used:
(§2) Stable cell lines OR1/OR7, OR2/OR7, OR8/OR7, OR10/OR7, OR28/OR7 and TRPM8 were generated from HEK293T cells. HEK293T-based cell lines were cultured in DMEM supplemented with these additional antibiotics: 6 μg/mL blasticidin and 1 μg/mL puromycin, with the exception of the TRPM8 cell lines, which was cultured in DMEM supplemented with 1 μg/mL puromycin.
(§3) Cells were trypsinized and split into 35 mm dishes one day before transfection. Confluent cells (60-70%) in 35 mm dishes were transfected with 1 μg of insect OR(X) plasmids in pME18s-bla and 1 μg of OR7-pME18s-puro using lipofectamine 2000. For Anopheles odorant receptors, two plasmids were co-transfected into HEK cells: the ligand-specific receptor (OR1, OR2, OR8, OR28) and the corresponding olfactory co-receptor: OR7. Cell lines containing TRPM8 were transfected with single plasmid.
(§4) Stable cell lines were cultured in 10 cm dishes, and confluent cells (70-80%) were trypsinized. 10,000 cells/20 μL were transferred into each well of 384-well plates coated with poly-D-lysine, and cultured for 2 days. For Flip-In T-Rex cells (cell lines expressing Or47a/Or83b and 5HT3), 5 μL of tetracycline (5 μg/mL) were added 1 day before the assay. 20 μL of Ca-4 dye was loaded into each well for 1.5 hr at room temperature in the dark, and the dye-loaded plates were subjected to Ca^2+-imaging using a Hamamatsu FDSS6000 real time fluorescence plate reader. Odorant solutions (9× final concentration) were prepared by dissolving 1M stock solutions into Hank's Buffered Salt Solution (HBSS), and 30 μL of odor solution was transferred to each well in 384-well plates.
(§5) Compounds ([…] in DMSO) were stored in 384-well plates, and last two columns (32 wells total) contained only DMSO. 200 nL of small compounds were transferred into the odorant plates before the assay using the Perkin-Elmer Janus workstation. The odorant plates were spun down to remove air bubbles, and placed on the FDSS6000 plate loader, and 5 μL of odorant solution was applied to the cell plate on the FDSS6000. Ca^2+ increase was monitored with fluorescence at 525 nm by excitation at 485 nm.

OR2/OR7 = target: T2, OR2/OR7 (Anopheles gambiae, UniProt Q7QCC7+Q8WTE6); test: Ca2+-imaging of stable HEK293T cell line OR2/OR7
T2 construct: Full-length cDNAs for mosquito (Anopheles gambiae) odorant receptor (OR1, OR2, OR7, OR8, OR28); expressed in transfected cells
T2 sequence (Q8WTE6 1-378): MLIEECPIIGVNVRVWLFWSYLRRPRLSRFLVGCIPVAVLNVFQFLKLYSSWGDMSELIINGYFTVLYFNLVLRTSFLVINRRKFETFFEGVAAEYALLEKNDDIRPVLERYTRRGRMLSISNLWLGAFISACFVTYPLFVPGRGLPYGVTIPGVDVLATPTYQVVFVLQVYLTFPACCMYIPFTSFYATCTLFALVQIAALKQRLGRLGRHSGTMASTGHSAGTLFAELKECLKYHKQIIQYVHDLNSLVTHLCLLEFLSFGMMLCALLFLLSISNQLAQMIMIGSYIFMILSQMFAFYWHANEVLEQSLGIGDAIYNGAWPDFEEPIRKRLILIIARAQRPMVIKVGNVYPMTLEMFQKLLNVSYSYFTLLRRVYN
T2 sequence (Q7QCC7 1-478): T1 sequence (Q7QCC7 1-478)
Protocol: as §1, §2, §3, §4, §5

OR10/OR7 = OR10/OR7 (Anopheles gambiae, UniProt B5U0U7+Q7QCC7); test: Ca2+-imaging of stable HEK293T cell line OR10/OR7; conditions: for inhibition at 4 µM: HEK-293T, compound applied at 4 μM, read-out: Percent Inhibition OR10 OR7
OR10/OR7, sequence (B5U0U7 entry or part of it, one chain of several): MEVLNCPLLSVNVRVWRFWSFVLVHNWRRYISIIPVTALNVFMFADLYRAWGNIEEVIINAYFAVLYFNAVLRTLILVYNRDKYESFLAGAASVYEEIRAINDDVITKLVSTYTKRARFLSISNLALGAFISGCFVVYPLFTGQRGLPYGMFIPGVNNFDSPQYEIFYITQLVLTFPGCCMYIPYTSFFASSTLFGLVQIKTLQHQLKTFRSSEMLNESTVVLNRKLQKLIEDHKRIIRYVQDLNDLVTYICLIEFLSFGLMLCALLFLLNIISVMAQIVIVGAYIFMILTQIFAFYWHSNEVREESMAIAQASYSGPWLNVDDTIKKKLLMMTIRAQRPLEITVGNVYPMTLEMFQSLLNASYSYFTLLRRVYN
Protocol: as §2
After one day of incubation, the transfected cells were transferred into 10 cm dishes with DMEM containing antibiotics as follows: • 0.5 μg/mL of blasticidin for OR1/OR7, OR2/OR7, OR8/OR7, OR10/OR7, OR28/OR7 • 0.2 μg/mL of puromycin for TRPM8.
as §4, §5

OR28/OR7 = OR28/OR7 (Anopheles gambiae, UniProt A0A1S4GFY3+Q7QCC7); test: Ca2+-imaging of stable HEK293T cell line OR28/OR7; conditions: for inhibition at 4 µM: HEK-293T, compound applied at 4 μM, read-out: Percent Inhibition OR28 OR7
OR28/OR7, sequence (A0A1S4GFY3 entry or part of it, one chain of several): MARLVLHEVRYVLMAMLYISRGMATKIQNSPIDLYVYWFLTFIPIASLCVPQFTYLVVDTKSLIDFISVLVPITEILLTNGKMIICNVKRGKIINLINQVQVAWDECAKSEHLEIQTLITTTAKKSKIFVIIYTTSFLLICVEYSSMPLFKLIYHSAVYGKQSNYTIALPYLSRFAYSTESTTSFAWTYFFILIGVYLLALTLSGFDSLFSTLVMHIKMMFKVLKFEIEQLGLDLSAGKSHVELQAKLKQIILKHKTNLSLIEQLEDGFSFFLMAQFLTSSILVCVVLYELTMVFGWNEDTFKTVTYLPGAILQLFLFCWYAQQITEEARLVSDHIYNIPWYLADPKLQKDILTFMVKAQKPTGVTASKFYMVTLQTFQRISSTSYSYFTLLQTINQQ
Protocol: as §1, §2, §3, §4, §5

[1] = ligand 4-methyl phenol 30 μM, read-out: IC50 OR1 OR7
[2] = ligand 2-methyl phenol 30 μM, read-out: IC50 OR2 OR7
[3] = ligand indole 30 μM, read-out: IC50 OR10 OR7
[4] = ligand acetophenone 300 μM, read-out: IC50 OR28 OR7

## CC(C)Nc1nc(Cl)nc(N(C)C(C)C)n1 [RU-T7]
OR1/OR7; [1]
  IC50: < 2 µM
OR2/OR7; [2]
  IC50: < 2 µM
OR10/OR7
  IC50: > 20 µM
OR28/OR7
  IC50: > 20 µM

## O=C(C1CCCC1)N(Cc1nccn1CCc1c(F)cccc1Cl)C1CC1 [RU-I2]
OR1/OR7; [1]
  IC50: < 2 µM
OR2/OR7; [2]
  IC50: < 2 µM
OR10/OR7; [3]
  IC50: 2 to 20 µM
OR28/OR7; [4]
  IC50: 2 to 20 µM

## O=C(c1nccn1Cc1c(F)cccc1Cl)N(CC1CCCC1)C1CC1 [RU-I3]
OR1/OR7; [1]
  IC50: < 2 µM
OR2/OR7; [2]
  IC50: 2 to 20 µM
OR10/OR7; [3]
  IC50: 2 to 20 µM
OR28/OR7; [4]
  IC50: < 2 µM

## CC(C)Nc1nc(Cl)nc(NC(C)C)n1 [RU-T1]
OR1/OR7; [1]
  IC50: < 2 µM
OR2/OR7; [2]
  IC50: < 2 µM
OR10/OR7
  IC50: > 20 µM
OR28/OR7
  IC50: > 220 µM

## CCNc1nc(NC(C)C)nc(SC)n1 [RU-T3]
OR1/OR7
  IC50: > 220 µM
OR2/OR7
  IC50: 2 to 20 µM
OR10/OR7
  IC50: 2 to 20 µM
OR28/OR7
  IC50: 2 to 20 µM

## CCNc1nc(Cl)nc(NC(C)C)n1 [RU-T5]
OR1/OR7
  IC50: < 2 µM
OR2/OR7
  IC50: < 2 µM
OR10/OR7
  IC50: 2 to 20 µM
OR28/OR7
  IC50: > 20 µM

## CSc1nc(NC(C)C)nc(NC(C)C)n1 [RU-T2]
OR1/OR7
  IC50: 2 to 20 µM
OR2/OR7
  IC50: 2 to 20 µM
OR10/OR7
  IC50: 2 to 20 µM
OR28/OR7
  IC50: 2 to 20 µM

## CCN(CC)C(=O)c1cccc(C)c1 [DEET, N,N-diethyl-m-toluamide, reference compound]
OR1/OR7
  IC50: > 740 µM
OR2/OR7
  IC50: > 20 µM
OR10/OR7; [3]
  IC50: > 50 µM
OR28/OR7; [4]
  IC50: > 50 µM

## CN(Cc1nccn1Cc1c(F)cccc1Cl)C(=O)C1CCCC1 [RU-I5]
OR1/OR7; [1]
  IC50: < 2 µM
OR2/OR7; [2]
  IC50: < 2 µM
OR10/OR7; [3]
  IC50: > 20 µM
OR28/OR7; [4]
  IC50: 2 to 20 µM

## CC(C)Nc1nc(NC(C)C)nc(C(F)(F)F)n1 [RU-T8]
OR1/OR7; [1]
  IC50: < 2 µM
OR2/OR7; [2]
  IC50: < 2 µM
OR10/OR7
  IC50: > 20 µM
OR28/OR7
  IC50: > 20 µM

## Fc1cccc(Cl)c1Cn1ccnc1CN(CC1CCCC1)C1CC1 [RU-I4]
OR1/OR7; [1]
  IC50: < 2 µM
OR2/OR7; [2]
  IC50: 2 to 20 µM
OR10/OR7; [3]
  IC50: > 20 µM
OR28/OR7; [4]
  IC50: 2 to 20 µM

## C=CCN(Cc1nccn1Cc1cccc(F)c1)C(=O)c1ccccc1F [RU-I1]
OR1/OR7; [1]
  IC50: < 2 µM
OR2/OR7; [2]
  IC50: < 2 µM
OR10/OR7; [3]
  IC50: 2 to 20 µM
OR28/OR7; [4]
  IC50: 20 to 50 µM

## CC(C)Nc1nc(Cl)nc(NCc2ccccc2)n1 [RU-T9]
OR1/OR7; [1]
  IC50: < 2 µM
OR2/OR7; [2]
  IC50: > 20 µM
OR10/OR7
  IC50: > 20 µM
OR28/OR7
  IC50: > 50 µM

## CCNc1nc(NCC)nc(SC)n1 [RU-T4]
OR1/OR7; [1]
  IC50: 2 to 20 µM
OR2/OR7; [2]
  IC50: 20 to 50 µM
OR10/OR7
  IC50: 20 to 50 µM
OR28/OR7
  IC50: > 20 µM

## Cc1nc(NC(C)C)nc(NC(C)C)n1 [RU-T6]
OR1/OR7; [1]
  IC50: 2 to 20 µM
OR2/OR7; [2]
  IC50: > 20 µM
OR10/OR7
  IC50: > 20 µM
OR28/OR7
  IC50: 20 to 50 µM

## COCCNC(=O)c1ccc(CSc2nnc(-c3ccc(C)cc3)n2-c2ccccc2C)cc1 [RU-0053556]
OR10/OR7
  inhibition at 4 µM: 51 to 74%
OR10/OR7; Table B, read-out: IC50 OR10
  IC50: > 1 µM
OR28/OR7
  inhibition at 4 µM: > 75%
OR28/OR7; Table B, read-out: IC50 OR28
  IC50: 0.1 to 1 µM

## CCN(CC)c1onc(-c2ccc(F)cc2)c1CN(CCCOC)C(=O)c1ccc2c(c1)OCO2 [RU-0036983]
OR10/OR7
  inhibition at 4 µM: 26 to 50%
OR28/OR7
  inhibition at 4 µM: > 75%
OR28/OR7; Table B, read-out: IC50 OR28
  IC50: < 0.1 µM

## Cc1nn(-c2ccc(Cl)cc2)c(C)c1C(=O)NCc1ccccn1 [RU-0048608]
OR10/OR7
  inhibition at 4 µM: 51 to 74%
OR10/OR7; Table B, read-out: IC50 OR10
  IC50: > 1 µM
OR28/OR7
  inhibition at 4 µM: > 75%
OR28/OR7; Table B, read-out: IC50 OR28
  IC50: < 0.1 µM

## Fc1ccccc1/C=N/Nc1nc(N2CCCCC2)nc(N2CCOCC2)n1 [RU-0018338]
OR10/OR7
  inhibition at 4 µM: 26 to 50%
OR28/OR7
  inhibition at 4 µM: 51 to 74%
OR28/OR7; Table B, read-out: IC50 OR28
  IC50: < 0.1 µM

## CCOC(=O)c1c(NC(C)=O)c(-c2ccc(OC)cc2)cn1Cc1ccccc1 [RU-0077733]
OR10/OR7
  inhibition at 4 µM: 26 to 50%
OR28/OR7
  inhibition at 4 µM: 51 to 74%
OR28/OR7; Table B, read-out: IC50 OR28
  IC50: < 0.1 µM
